Test results taken from patent publication US20120016019A1, “PHARMACEUTICAL COMPOSITION FOR TREATING OR PREVENTING CANCER” (priority 2010, published 2012).
Where “and” joins values, the source holds several entries; their conditions need not be identical. Identical values can stand only once.

Experiments:
HCC 1419 = assay: XTT cell viability assay, HCC 1419; conditions: for The absorbance, Mean value / The absorbance / The absorbance, group - Blank: XTT 500 nm; for The absorbance: single wells
Method: Cancer cell lines HCC 1419, MCF-7, MDA-MB-468, SKBR3, PC3, HT1299, Saos-2, C-6, AsPc, MDA-MB-231, RKO, HeLa and TT, and normal cell lines HME 50 HT, BJ and CCD-1074sk were tested for changes in metabolism (XTT assay) and cell death (cell counts).
Cells were plated into 48-well Corning CellBind™ plates at densities of 20,000 cells for normal cells and 10,000˜20,000 cells for cancer cells. 24 to 48 h after plating, cells were treated with the composition according to the invention at concentrations of 4.5e-2M. The first time point treated with the composition of the invention is 0 h. At 3 days after the first treatment with the composition of the invention, medium was changed and the composition of the invention at the same concentrations were added to the cultured cells.
The XTT assay is an accepted analysis technique for viability and cytotoxicity of anticancer drugs or other pharmaceutical compositions. Cells were seeded in a 96-well tissue culture plate at a density of 10,000 cells for normal cells and 5,000 cells for cancer cells. After incubation period, the formazan dye formed was quantitated using an ELISA reader. The optimal wavelength used in experiments was 500 nm, and it was measured at 0 h, 12 h, 24 h, 48 h, 4 d and 7 d, respectively. The obtained values were generated using the software SoftMax Pro 4.8.
The cell viability was calculated according to the manufacturer's instructions as follows (the term “blank” means XTT in medium only):
Cellular cytotoxicity was calculated according to the manufacturer's instructions as follows: […]

MCF-7 = assay: Cell counts, MCF-7; format: cell-based; conditions: for cell counts: single wells
Method: Cells were harvested using Trypsin-EDTA at the designated time points. […] Two 48-well plates were used per cell line, and they were measured at 0 h, 12 h, 24 h, 48 h, 4 d and 7 d, respectively.
(§1) In the 1st plate, cells were treated with the composition according to the invention and medium was changed at 0 h and 3 d. […] As a result, LC-50 curves were generated in the 1st week.
(§2) At 0 h of the 2nd week, medium was exchanged with untreated medium for the remainder of the experiment. The untreated controls were not measured in the 2nd week (recovery) due to overconfluence by the end of the 1st week. As a result, Recovery curves were generated in the 2nd week.

CCD-1074sk = assay: in vitro; format: cell-based; conditions: human, 220 nM
Method: (§3) Cells were harvested using Trypsin-EDTA at the designated time points. When total cells for each well were counted with a Beckman-Coulter Z1 Particle Characterization Unit, the vertical axis represents 1/20 of cell number in the Figures attached to the specification, while when counted with a Beckman-Coulter Vi-Cell, the vertical axis represents cell number in the Figures. Two 48-well plates were used per cell line, and they were measured at 0 h, 12 h, 24 h, 48 h, 4 d and 7 d, respectively.
(§4) The viability was determined by using the trypan blue staining in the well of cell counting.

in vitro = format: cell-based; conditions: human
Method: as §3, §4

HT 1299 = assay: Cell counts, HT 1299; format: cell-based; conditions: for cell counts: single wells
Method: As a result, LC-50 curves were generated in the 1st week.
In the 2nd plate, 7 d of the 1st week (LC-50) is the same as 0 h of the 2nd week (recovery).
At 0 h of the 2nd week, medium was exchanged with untreated medium for the remainder of the experiment. […] As a result, Recovery curves were generated in the 2nd week.
HT 1299 is a non-small cell lung cancer. The cells have a homozygous partial deletion of the p53 protein, and lack expression of p53 protein.

C-6 = assay: Cell counts, C-6; format: cell-based, rat
Method: as §3, §1, §2
C-6 is glioblastoma cells.

[1] = HCC 1419, 1st week (LC50), 24 h
[2] = HCC 1419, 1st week (LC50), 48 h
[3] = HCC 1419, 2nd week (recovery), 0 h
[4] = HCC 1419, 2nd week (recovery), 48 h
[5] = HCC 1419, 2nd week (recovery), 4 d
[6] = viability (%) calculated from the cell counts

CC(=O)O[C@H]1C(=O)[C@@]2(C)[C@H]([C@H](OC(=O)c3ccccc3)[C@]3(O)C[C@H](OC(=O)[C@H](O)[C@@H](NC(=O)c4ccccc4)c4ccccc4)C(C)=C1C3(C)C)[C@]1(OC(C)=O)CO[C@@H]1C[C@@H]2O [Taxol]
The absorbance, Mean value (HCC 1419; HCC 1419, 1st week (LC50), 0 h): 2.5924 | The absorbance (HCC 1419; HCC 1419, 1st week (LC50), 0 h): 2.5534 and 2.6558 and 2.5679 | The absorbance, group - Blank (HCC 1419; HCC 1419, 1st week (LC50), 12 h): 2.0317 | The absorbance, Mean value (HCC 1419; [1]): 2.8401 | The absorbance, group - Blank (HCC 1419; [1]): 2.5035 | The absorbance (HCC 1419; [1]): 2.9427 and 2.856 and 2.7216 | The absorbance, Mean value (HCC 1419; [2]): 3.4706 | The absorbance, group - Blank (HCC 1419; [2]): 3.1340 | The absorbance (HCC 1419; [2]): 3.7945 and 2.9086 and 3.7087 | The absorbance, Mean value (HCC 1419; HCC 1419, 1st week (LC50), 4 d): 2.6666 | The absorbance (HCC 1419; HCC 1419, 1st week (LC50), 4 d): 2.6667 and 2.7014 and 2.6316 | The absorbance, Mean value (HCC 1419; HCC 1419, 1st week (LC50), 7 d): 2.5386 | The absorbance (HCC 1419; HCC 1419, 1st week (LC50), 7 d): 2.6877 and 2.5421 | The absorbance, Mean value (HCC 1419; [3]): 2.4911 | The absorbance (HCC 1419; [3]): 2.7348 | The absorbance (HCC 1419; HCC 1419, 2nd week (recovery), 24 h): 2.4388 | The absorbance, Mean value (HCC 1419; [4]): 2.6525 | The absorbance, group - Blank (HCC 1419; [4]): 2.4436 | The absorbance (HCC 1419; [4]): 2.6611 and 2.6375 and 2.6588 | The absorbance, Mean value (HCC 1419; [5]): 2.6058 | The absorbance (HCC 1419; [5]): 2.7024 and 2.5033 and 2.6116 | The viability (HCC 1419; HCC 1419, XTT, 1/100 of %, 2nd week (recovery), 48 h): 0.8937 | The viability (HCC 1419; human, 12 h, 220 nM): 0.7658 | The viability (HCC 1419; human, 48 h, 220 nM): 1.1461 | The viability (HCC 1419; human, 7 d, 220 nM): 0.9883 | cell counts, Mean value (MCF-7; 1st week (LC50), 0 h): 55333 | cell counts (MCF-7; 1st week (LC50), 0 h): 39000 and 67000 and 60000 | cell counts, Mean value (MCF-7; 1st week (LC50), 24 h): 43667 | cell counts (MCF-7; 1st week (LC50), 24 h): 39000 and 54000 and 38000 | cell counts, Mean value (MCF-7; 1st week (LC50), 48 h): 23333 | cell counts (MCF-7; 1st week (LC50), 48 h): 21000 and 19000 and 30000 | cell counts, Mean value (MCF-7; 1st week (LC50), 4 d): 21667 | cell counts, Mean value (MCF-7; 1st week (LC50), 7 d): 4333 | cell counts (MCF-7; 1st week (LC50), 7 d): 4000 and 5000 | cell counts, Mean value (MCF-7; 2nd week (recovery), 0 h): 2032 | cell counts (MCF-7; 2nd week (recovery), 0 h): 2361 and 1648 and 2087 | cell counts, Mean value (MCF-7; 2nd week (recovery), 24 h): 646 | cell counts (MCF-7; 2nd week (recovery), 24 h): 807 and 728 | cell counts, Mean value (MCF-7; 2nd week (recovery), 48 h): 2084 | cell counts (MCF-7; 2nd week (recovery), 48 h): 1726 and 2010 and 2517 | cell counts, Mean value (MCF-7; 2nd week (recovery), 4 d): 2013 | cell counts (MCF-7; 2nd week (recovery), 4 d): 2135 and 1892 and 2011 | cell counts, Mean value (MCF-7; 2nd week (recovery), 7 d): 1772 | cell counts (MCF-7; 2nd week (recovery), 7 d): 2098 and 1693 and 1524 | viability (%), Mean value (CCD-1074sk; 0 h): 79% | viability (%) calculated from the cell counts (CCD-1074sk; 48 h): 83% | viability (%) calculated from the cell counts (CCD-1074sk; 4 d): 33% | viability at 0 h, 2.2e-07 M (in vitro; [6]): 70% | viability at 24 h, 2.2e-07 M (in vitro; [6]): 71% | viability at 4 d, 2.2e-07 M (in vitro; [6]): 43% | viability at 0 h, 2.2e-07 M (in vitro; viability (%), Mean value): 73% | viability at 24 h, 2.2e-07 M (in vitro; viability (%), Mean value): 80% | viability at 4 d, 2.2e-07 M (in vitro; viability (%), Mean value): 38% | process of cell death (microscopy) (HT 1299): cell membranes were ruptured by toxicity of Taxol, and then nuclei of cells changed into black | cell counts, Mean value (HT 1299; 1st week (LC50), 0 h): 3737 | cell counts, Mean value (HT 1299; 1st week (LC50), 12 h): 3705 | cell counts (HT 1299; 1st week (LC50), 12 h): 2680 and 3085 and 5350 | cell counts, Mean value (HT 1299; 1st week (LC50), 24 h): 3252 | cell counts (HT 1299; 1st week (LC50), 24 h): 2810 and 4255 and 2690 | cell counts, Mean value (HT 1299; 1st week (LC50), 48 h): 1464 | cell counts (HT 1299; 1st week (LC50), 48 h): 1382 and 1526 and 1484 | cell counts (HT 1299; 1st week (LC50), 4 d): 488 and 536 and 712 | cell counts, Mean value (HT 1299; 1st week (LC50), 7 d): 782 | cell counts (HT 1299; 1st week (LC50), 7 d): 982 and 736 | cell counts, Mean value (HT 1299; 2nd week (recovery), 0 h): 919 | cell counts (HT 1299; 2nd week (recovery), 0 h): 1193 and 789 and 776 | cell counts, Mean value (HT 1299; 2nd week (recovery), 24 h): 227 | cell counts, Mean value (HT 1299; 2nd week (recovery), 48 h): 432 | cell counts (HT 1299; 2nd week (recovery), 48 h): 410 and 499 and 386 | cell counts, Mean value (HT 1299; 2nd week (recovery), 4 d): 446 | cell counts (HT 1299; 2nd week (recovery), 4 d): 322 and 545 and 470 | cell counts, Mean value (HT 1299; 2nd week (recovery), 7 d): 118 | cell counts (HT 1299; 2nd week (recovery), 7 d): 104 and 144 and 107 | cell counts (C-6; 1st week (LC50), 0 h): 6111 and 7077 and 4897 | cell counts, Mean value (C-6; 1st week (LC50), 0 h): 6028 | cell counts (C-6; 1st week (LC50), 12 h): 3726 and 4240 | cell counts, Mean value (C-6; 1st week (LC50), 12 h): 4469 | cell counts (C-6; 1st week (LC50), 24 h): 3895 and 3853 and 3340 | cell counts, Mean value (C-6; 1st week (LC50), 24 h): 3696 | cell counts (C-6; 1st week (LC50), 48 h): 6630 and 6722 | cell counts, Mean value (C-6; 1st week (LC50), 48 h): 6243 | cell counts (C-6; 1st week (LC50), 4 d): 6026 and 6751 and 6905 | cell counts, Mean value (C-6; 1st week (LC50), 4 d): 6561 | cell counts, Mean value (C-6; 1st week (LC50), 7 d): 4450 | cell counts (C-6; 2nd week (recovery), 0 h): 2984 and 3948 and 4207 | cell counts, Mean value (C-6; 2nd week (recovery), 0 h): 3713 | cell counts (C-6; 2nd week (recovery), 24 h): 3392 and 4285 and 3984 | cell counts, Mean value (C-6; 2nd week (recovery), 24 h): 3887 | cell counts (C-6; 2nd week (recovery), 48 h): 3166 and 3930 | cell counts, Mean value (C-6; 2nd week (recovery), 48 h): 4184 | cell counts (C-6; 2nd week (recovery), 4 d): 4825 and 3184 | cell counts, Mean value (C-6; 2nd week (recovery), 4 d): 4031 | cell counts (C-6; 2nd week (recovery), 7 d): 3989 and 4316 and 3634 | cell counts, Mean value (C-6; 2nd week (recovery), 7 d): 3980 | response of the cells (C-6; composition: after 4 days of exposure): resistance to Taxol
